Laboratory results from article PMC6934184, “Selective DNA-PKcs inhibition extends the therapeutic index of localized radiotherapy and chemotherapy” (The Journal of Clinical Investigation, 2019).

Biological target: T1, CASK (Homo sapiens, UniProt O14936)
T1 construct: purchased Thermo Fisher Scientific (Life Technologies) SelectScreen
Test: SelectScreen LanthaScreen
Assay type: binding
Conditions: read-out: % displacement
Summary of the method: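 SelectScreen broad panel; activity (Z'LYTE, Adapta) plus binding formats. ATP: Km app for CSF1R Z'LYTE; 10 for CAMK1 Adapta. Readout = % per kinase.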

T1 sequence (O14936 whole entry): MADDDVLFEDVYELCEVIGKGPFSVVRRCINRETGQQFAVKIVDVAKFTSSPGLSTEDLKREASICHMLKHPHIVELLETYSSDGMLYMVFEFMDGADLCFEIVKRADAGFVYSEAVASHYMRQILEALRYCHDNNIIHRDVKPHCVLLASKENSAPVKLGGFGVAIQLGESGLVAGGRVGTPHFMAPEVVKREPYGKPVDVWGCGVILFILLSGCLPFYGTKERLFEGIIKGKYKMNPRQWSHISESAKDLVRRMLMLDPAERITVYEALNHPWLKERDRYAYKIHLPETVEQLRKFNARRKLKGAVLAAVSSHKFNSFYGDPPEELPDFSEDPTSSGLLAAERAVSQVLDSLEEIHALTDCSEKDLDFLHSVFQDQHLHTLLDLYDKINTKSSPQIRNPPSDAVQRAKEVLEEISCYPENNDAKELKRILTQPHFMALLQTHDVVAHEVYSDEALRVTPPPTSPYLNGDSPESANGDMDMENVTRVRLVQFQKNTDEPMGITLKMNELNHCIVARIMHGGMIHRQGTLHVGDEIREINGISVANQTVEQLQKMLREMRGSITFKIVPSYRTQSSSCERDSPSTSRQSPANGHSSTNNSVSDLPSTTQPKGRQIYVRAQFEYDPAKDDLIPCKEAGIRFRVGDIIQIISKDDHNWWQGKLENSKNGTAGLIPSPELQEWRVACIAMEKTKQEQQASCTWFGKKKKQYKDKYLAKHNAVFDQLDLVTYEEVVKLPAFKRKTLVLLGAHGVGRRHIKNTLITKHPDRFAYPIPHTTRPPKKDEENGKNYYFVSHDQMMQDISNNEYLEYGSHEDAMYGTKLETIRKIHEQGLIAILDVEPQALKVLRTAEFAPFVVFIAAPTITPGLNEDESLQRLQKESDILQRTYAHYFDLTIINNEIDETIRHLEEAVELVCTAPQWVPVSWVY

With `CN(C(=O)CN1CCOCC1)c1ccc2sc3c(-c4cccc5c(=O)cc(N6CC7CCC(C6)O7)oc45)cccc3c2c1` [NU5455] the inhibition at 1 µM was -3.1%.
